Measured values from US20040127492A1 (Pharmacia Corporation, priority 2002, published 2004).
Read-outs that look alike come from different tables or passages of the source.

Legend:
[1] = biological target: MK-3 (Homo sapiens, UniProt Q16644); assay: MK-3 inhibition IC50 (similar method to MK-2, with appropriate modifications); assay type: biochemical
Procedure: In practice, the selectivity of a cyclic pyrazole MK-2 inhibitor varies depending upon the condition under which the test is performed and on the inhibitors being tested. However, for the purposes of this specification, the selectivity of a cyclic pyrazole MK-2 inhibitor inhibitor can be measured as a ratio of the in vitro or in vivo IC50 value for inhibition of MK-3, divided by the IC50 value for inhibition of MK-2 (IC50 MK-3/IC50 MK-2). […] The MK-2 or MK-3 inhibiting activity of any of the compounds described herein can be determined by any one of several methods that are well known to those having skill in the art of enzyme activity testing. […] A similar method, with appropriate modifications, Can be used to measure MK-3 inhibitory activity. In addition, the efficacy of one of the present MK-2 inhibiting compounds in therapeutic applications can be determined by testing for inhibition of TNFα production in cell culture and in animal model assays.

[2] = biological target: MAPKAPK2 (MK-2) (Homo sapiens, UniProt P49137); assay: Determination of MK-2 IC50 (HSP-peptide phosphorylation, anion exchange resin capture assay); assay type: biochemical
In short: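 MAPKAPK2, preactivated by p38α with 0.25 mM ATP for 1 h at 30° C, used at 15 nM to phosphorylate HSP-peptide with 0.03 mM ATP plus [γ33P]ATP, pH 7.5, 2% DMSO, 30 min at 30° C. Labelled peptide counted after anion-exchange resin capture; IC50 from six ten-fold dilutions, triplicate.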

[3] = Table 1, phenoxypyrazole MK-2 inhibitors, read-out: MK-3 Avg. IC50
[4] = Table 1, phenoxypyrazole MK-2 inhibitors, read-out: MK-2 Avg, IC50
[5] = Table 2, pyrazolylpyrazole MK-2 inhibitors, read-out: MK-3 Avg. IC50
[6] = Table 2, pyrazolylpyrazole MK-2 inhibitors, read-out: MK-2 Avg. IC50
[7] = Table 5, other cyclic pyrazole MK-2 inhibiting compounds, read-out: MK-3 Avg. IC50
[8] = Table 5, other cyclic pyrazole MK-2 inhibiting compounds, read-out: MK-2 Avg. IC50
[9] = Table 4, pyrimidylpyrazole MK-2 inhibitors, read-out: NK-3 Avg. IC50
[10] = Table 4, pyrimidylpyrazole MK-2 inhibitors, read-out: MK-2 Avg. IC50

MAPKAPK2 (MK-2), sequence (P49137 whole entry, species assumed): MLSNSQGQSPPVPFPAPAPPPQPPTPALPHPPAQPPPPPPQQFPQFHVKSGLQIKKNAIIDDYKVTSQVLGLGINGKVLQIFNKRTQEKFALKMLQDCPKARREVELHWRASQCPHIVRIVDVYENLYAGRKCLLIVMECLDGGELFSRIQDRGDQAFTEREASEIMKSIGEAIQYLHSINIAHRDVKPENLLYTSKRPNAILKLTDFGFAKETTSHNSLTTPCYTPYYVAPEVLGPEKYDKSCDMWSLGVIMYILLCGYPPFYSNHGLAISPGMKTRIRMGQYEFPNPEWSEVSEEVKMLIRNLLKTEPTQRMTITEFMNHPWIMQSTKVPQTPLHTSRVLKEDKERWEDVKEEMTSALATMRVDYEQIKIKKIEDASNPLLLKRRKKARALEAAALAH
MK-3, sequence (Q16644 whole entry, species assumed): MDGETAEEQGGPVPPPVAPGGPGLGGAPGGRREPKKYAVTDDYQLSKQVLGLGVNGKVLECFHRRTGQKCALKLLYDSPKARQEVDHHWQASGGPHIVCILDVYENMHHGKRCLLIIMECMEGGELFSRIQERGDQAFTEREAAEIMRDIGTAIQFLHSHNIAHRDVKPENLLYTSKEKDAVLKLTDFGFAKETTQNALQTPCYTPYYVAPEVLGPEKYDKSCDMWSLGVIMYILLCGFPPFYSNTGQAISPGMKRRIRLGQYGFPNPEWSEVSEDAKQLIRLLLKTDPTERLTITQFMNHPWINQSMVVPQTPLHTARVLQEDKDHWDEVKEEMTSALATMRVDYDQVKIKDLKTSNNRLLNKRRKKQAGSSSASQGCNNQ

| SMILES | IC50 [1, 3] [µM] | IC50 [2, 4] [µM] | IC50 ([1]; read-out: MK-3 Avg. IC50) [µM] | IC50 ([2]; read-out: MK-2 Avg. IC50) [µM] | further results |
| --- | --- | --- | --- | --- | --- |
| COC(=O)c1c2c(nn1CCNC(=O)OC(C)(C)C)-c1cc(Br)c(OC)cc1CC2 [Example 185] | > 200 | > 200 |  |  |  |
| C=CCn1nc2c(c1C(N)=O)CCc1cc(OCOCCOC)ccc1-2 [Example 80] | > 200 | > 200 |  |  |  |
| CC(C)(C)c1ccc(-c2ccc(CCNCCCn3nc4c(c3C(=O)O)CCc3cnccc3-4)cc2)cc1 [Example 33] |  |  | 7.22 | 0.201 |  |
| C=CCSc1n[nH]c2c1-c1nn(CCCN)c(C(=O)OCC)c1CC2 [Example 31] |  |  |  |  | IC50 [1, 5]: ≥ 200 µM; IC50 [2, 6]: 114 µM |
| O=C(O)c1c2c(nn1CCCNCCc1ccsc1)-c1cn[nH]c1CC2 [Example 8] |  |  |  |  | IC50 [1, 5]: 48.5 µM; IC50 [2, 6]: 7.84 µM |
| COc1cc2c(cc1OC)-c1c(c(C(N)=O)nn1-c1ccc(S(N)(=O)=O)cc1)CC2 [Example 175] | > 200 | > 200 |  |  |  |
| O=C(O)c1c2c(nn1CCCNCCc1ccc(-c3cccc(C(F)(F)F)c3)cc1)-c1ccncc1CC2 [Example 21] |  |  | 10.4 | 0.103 |  |
| COc1ccc2c(c1)CCc1c(C(=O)O)nn(-c3ccc(S(N)(=O)=O)cc3)c1-2 [Example 166] | > 200 | > 200 |  |  |  |
| CCOC(=O)c1c2c(nn1CCCN)-c1c(SCc3ccccc3)n[nH]c1CC2 [Example 44] |  |  |  |  | IC50 [1, 5]: ≥ 200 µM; IC50 [2, 6]: 181 µM |
| O=C(O)c1c2c(nn1CCCNCCc1ccc(Br)cc1)-c1cc(/C=C/c3ccccc3)ncc1CC2 [Example 34] |  |  |  |  | IC50 [1, 7]: 2.02 µM; IC50 [2, 8]: 0.28 µM |
| O=C(O)c1[nH]nc2c1CCc1[nH]ncc1-2 [Example 45] |  |  |  |  | IC50 [1, 5]: ≥ 200 µM; IC50 [2, 6]: 188 µM |
| NCCCn1nc2c(c1C(=O)O)CCc1cc(O)c(-c3cccc([N+](=O)[O-])c3)cc1-2 [Example 1] | 115 | 0.823 |  |  |  |
| O=C(O)c1c2c(nn1CCCNCCc1ccc(-c3ccncc3)cc1)-c1ccncc1CC2 [Example 37] |  |  | 7.71 | 0.211 |  |
| CNC(=O)c1nn(-c2ccc(S(N)(=O)=O)cc2)c2c1CCc1c-2cnn1Cc1ccccc1 [Example 48] |  |  |  |  | IC50 [1, 5]: ≥ 200 µM; IC50 [2, 6]: ≥ 200 µM |
| O=C1NCCCn2nc3c(c21)CCc1cnc(-c2cnc4ccccc4c2)cc1-3 [Example 30] |  |  | 11.9 | 0.171 |  |
| O=C(O)c1ccc(-c2ccc(CCNCCCn3nc4c(c3C(=O)O)CCc3cnccc3-4)cc2)cc1 [Example 18] |  |  | 2.18 | 0.0796 |  |
| CC(C)(C)OC(=O)NCCCn1nc2c(c1C(N)=O)CCc1[nH]ncc1-2 [Example 66] |  |  |  |  | IC50 [1, 5]: ≥ 200 µM; IC50 [2, 6]: ≥ 200 µM |
| O=C(O)c1c2c(nn1CCCNCCc1ccc(Br)cc1)-c1cn[nH]c1CC2 [Example 3] |  |  |  |  | IC50 [1, 5]: 20.8 µM; IC50 [2, 6]: 2.23 µM |
| O=C(O)c1c2c(nn1CCCNS(=O)(=O)Cc1ccccc1)-c1cc(-c3cnc4ccccc4c3)ncc1CC2 [Example 48] |  |  | 4.51 | 0.374 |  |
| COc1ccc(/C=C/c2cc3c(cn2)CCc2c-3nn3c2C(=O)NCC3)cc1 [Example 12] |  |  |  |  | IC50 [1, 7]: > 200 µM; IC50 [2, 8]: 4.76 µM |
| C=CCC1Cc2c(C(=O)O)n[nH]c2-c2ccc(O)cc21 (centres unmarked) [Example 60] | > 200 | 148 |  |  |  |
| NCCCn1nc2c(c1C(=O)O)CCc1cnc(-c3cccc(C(F)(F)F)c3)cc1-2 [Example 12] |  |  | 0.29 | 0.0433 |  |
| N#CCCCn1nc2c(c1C(=O)O)CCc1[nH]ncc1-2 [Example 32] |  |  |  |  | IC50 [1, 5]: ≥ 200 µM; IC50 [2, 6]: 116 µM |
| CCN(CC)CCNC(=O)c1nn(-c2ccc(Cl)cc2)c2c1CCc1cc(OC)ccc1-2 [Example 171] | > 200 | > 200 |  |  |  |
| O=C1NCCCn2nc3c(c21)CCc1cnc(-c2ccc(O)cc2)cc1-3 [Example 31] |  |  | 2.56 | 0.183 |  |
| O=C(O)c1c2c(nn1CC(F)(F)F)-c1cn[nH]c1CC2 [Example 41] |  |  |  |  | IC50 [1, 5]: ≥ 200 µM; IC50 [2, 6]: 150 µM |

| SMILES | IC50 [1, 3] [µM] | IC50 [2, 4] [µM] | IC50 ([1]; read-out: MK-3 Avg. IC50) [µM] | IC50 ([2]; read-out: MK-2 Avg. IC50) [µM] | further results |
| --- | --- | --- | --- | --- | --- |
| CONC(=O)c1[nH]nc2c1CCc1[nH]ncc1-2 [Example 39] |  |  |  |  | IC50 [1, 5]: 180 µM; IC50 [2, 6]: 141 µM |
| NCCn1nc2c(c1C(=O)O)CCc1cc(O)c(Br)cc1-2 [Example 5] | > 200 | 2.14 |  |  |  |
| COC(=O)c1c2c(nn1CCCNC(=O)OC(C)(C)C)-c1ccc(OC)cc1CC2 [Example 186] | > 200 | > 200 |  |  |  |
| NCCCn1nc2c(c1C(N)=O)CCc1cnc(-c3cnc4ccccc4c3)cc1-2 [Example 51] |  |  | 9.21 | 0.473 |  |
| O=C1NCCn2nc3c(c21)CCc1[nH]ncc1-3 [Example 14] |  |  |  |  | IC50 [1, 5]: 137 µM; IC50 [2, 6]: 20 µM |
| N#Cc1ccc(CCCNCCCn2nc3c(c2C(=O)O)CCc2cnccc2-3)cc1 [Example 58] |  |  | 44.3 | 0.561 |  |
| N#Cc1cccc(-c2cc3c(cc2O)CCc2c-3nn(CCCN)c2C(=O)O)c1 [Example 10] | 168 | 5.35 |  |  |  |
| NCCCn1nc2c(c1C(=O)O)CCc1cnc(-c3ccccc3)nc1-2 [Example 3] |  |  |  |  | IC50 [1, 9]: 10.8 µM; IC50 [2, 10]: 0.406 µM |
| CCOC(=O)c1c2c(nn1C)-c1ccc(O)cc1CC2 [Example 157] | > 200 | > 200 |  |  |  |
| Cn1ncc2c1CCc1c-2n[nH]c1C(N)=O [Example 49] |  |  |  |  | IC50 [1, 5]: ≥ 200 µM; IC50 [2, 6]: ≥ 200 µM |
| O=C1NCCn2nc3c(c21)CCc1cnc(/C=C/c2ccc(F)cc2)cc1-3 [Example 8] |  |  |  |  | IC50 [1, 7]: > 20 µM; IC50 [2, 8]: 0.749 µM |
| O=C(O)c1c2c(nn1CCCNCCc1ccc(Br)cc1)-c1ccncc1CC2 [Example 46] |  |  | 10.7 | 0.325 |  |
| CCOC(=O)c1[nH]nc2c1CCc1c-2cnn1-c1ccccc1 [Example 47] |  |  |  |  | IC50 [1, 5]: ≥ 200 µM; IC50 [2, 6]: ≥ 200 µM |
| CSc1n[nH]c2c1-c1nn(CCCN)c(C(=O)O)c1CC2 [Example 1] |  |  |  |  | IC50 [1, 5]: 47 µM; IC50 [2, 6]: 1.06 µM |
| O=C1NCCn2nc3c(c21)CCc1cnc(/C=C/c2ccc(Cl)cc2)cc1-3 [Example 6] |  |  |  |  | IC50 [1, 7]: > 20 µM; IC50 [2, 8]: 0.536 µM |
| NCCCn1nc2c(c1C(=O)O)CCc1cc(O)c(-c3ccncc3)cc1-2 [Example 23] | > 200 | 18.8 |  |  |  |
| NCCCn1nc2c(c1C(=O)O)CCc1cnc(-c3ccc4ccccc4c3)cc1-2 [Example 5] |  |  | 0.0698 | 0.023 |  |
| CC(C)(C)c1ccc(CCCNCCCn2nc3c(c2C(=O)O)CCc2cnccc2-3)cc1 [Example 39] |  |  | 11.6 | 0.234 |  |
| NCCCn1nc2c(c1C(=O)O)CCc1cc(O)c(CCC(F)(F)F)cc1-2 [Example 12] | 149 | 8.11 |  |  |  |
| CNc1ccc(-c2cc3c(cc2O)CCc2c-3nn(CCCN)c2C(=O)O)cc1 [Example 21] | > 200 | 17.7 |  |  |  |
| NCCCn1nc2c(c1C(=O)O)CCc1cc(O)ccc1-2 [Example 4] | 37.9 | 2.09 |  |  |  |
| CC(C)(C)c1ccc(-c2cc3c(cn2)CCc2c-3nn(CCCN)c2C(=O)O)cc1 [Example 22] |  |  | 0.426 | 0.112 |  |
| Nc1ccc(NCCCn2nc3c(c2C(=O)O)CCc2cnccc2-3)cc1 [Example 158] |  |  | 133 | 9.73 |  |
| NCCCn1nc2c(c1C(=O)O)CCc1cnc(-c3ccc4c(c3)OCO4)nc1-2 [Example 2] |  |  |  |  | IC50 [1, 9]: 4.61 µM; IC50 [2, 10]: 0.295 µM |
| O=C1NCCCn2nc3c(c21)CCc1cnc(Nc2ccccc2)cc1-3 [Example 131] |  |  | 25.2 | 4.68 |  |
| COc1cc2c(cc1-c1cccn1C(=O)OC(C)(C)C)-c1nn(CCCNC(=O)OC(C)(C)C)c(C(=O)O)c1CC2 [Example 58] | > 200 | 148 |  |  |  |
